The values below come from PubChem BioAssay (NCI).

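Dose response: 5 concentrations. Exposure: 48 h. Format: 96-well plates. Endpoint: linear interpolation; highest concentration if not reached. At the GI50, growth is halved. TGI: concentration producing complete growth inhibition.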

Some test systems named below: HL-60(TB) leukemia; COLO 205 colon; SF-539 CNS; LOX IMVI melanoma; SF-268 CNS; SF-295 CNS; OVCAR-8 ovarian; OVCAR-3 ovarian; HCT-15 colon; CAKI-1 renal.
Assay in all cases: growth of human tumour cells (NCI), 48 h

For the molecule `O=NN(CC(=O)NNc1ccccc1)CC(=O)NNc1ccccc1`, the GI50 in the test on HL-60(TB) leukemia is 0.534 µM; with COLO 205 colon, 5.69 µM; in the test on SF-539 CNS it was 2.84 µM; in the test with LOX IMVI melanoma, 1.22 µM; with SF-268 CNS, 22.1 µM; in the test with SF-295 CNS, 2.34 µM. The GI50 was 9.88 µM in the test on OVCAR-8 ovarian, 11.3 µM in the test with OVCAR-3 ovarian, 12.3 µM in the test with HCT-15 colon and 3.77 µM with CAKI-1 renal. For the same molecule, the TGI in the test on HL-60(TB) leukemia is > 100 µM; with COLO 205 colon it was > 59.2 µM; in the test on SF-539 CNS it was 10.1 µM; in the test with LOX IMVI melanoma, > 100 µM; in the test on SF-268 CNS, > 100 µM; in the test on SF-295 CNS, 7.81 µM. For the same molecule, the TGI with OVCAR-8 ovarian, in the test with OVCAR-3 ovarian, in the test with HCT-15 colon and in the test with CAKI-1 renal was > 100 µM throughout.

As to `CCn1cnc(C[C@H](NC(=O)[C@@H](NC(=O)Nc2cc(C(F)(F)F)cc(C(F)(F)F)c2)C(C)(C)C)C(=O)OC)c1`, the GI50 in the test with HL-60(TB) leukemia, in the test with COLO 205 colon, in the test with SF-539 CNS, with LOX IMVI melanoma, in the test on SF-268 CNS and in the test with SF-295 CNS was > 10 µM each time. Also, the GI50 in the test with OVCAR-8 ovarian, in the test with OVCAR-3 ovarian, with HCT-15 colon and with CAKI-1 renal was > 10 µM each time. The TGI in the test with HL-60(TB) leukemia, in the test with COLO 205 colon, in the test on SF-539 CNS, in the test on LOX IMVI melanoma, in the test on SF-268 CNS and with SF-295 CNS was > 10 µM in each case. The TGI in the test with OVCAR-8 ovarian, with OVCAR-3 ovarian, in the test on HCT-15 colon and with CAKI-1 renal was > 10 µM each time.

`COc1ccc(C(=O)c2no[n+]([O-])c2C(=O)c2ccc(OC)cc2)cc1`: the GI50 is 2.08 µM in the test on HL-60(TB) leukemia; 1.77 µM in the test with COLO 205 colon; 2.19 µM with SF-539 CNS; 1.14 µM with LOX IMVI melanoma; 3.11 µM with SF-268 CNS; 17.8 µM in the test with SF-295 CNS. The GI50 in the test with OVCAR-8 ovarian is 2.67 µM; with OVCAR-3 ovarian, 1.87 µM; with HCT-15 colon, 3.98 µM; with CAKI-1 renal it was 1.9 µM. In addition, the TGI with HL-60(TB) leukemia is 4.37 µM; with COLO 205 colon, 3.37 µM; with SF-539 CNS, 4.97 µM; in the test with LOX IMVI melanoma it was 2.53 µM; in the test on SF-268 CNS, 7.98 µM; with SF-295 CNS, 34.7 µM. Moreover, the TGI with OVCAR-8 ovarian came out at 6.6 µM; with OVCAR-3 ovarian, 3.31 µM; with HCT-15 colon, 14.9 µM; in the test with CAKI-1 renal, 4 µM.

In the case of `COc1ccc(C)cc1-c1ccc(-c2cc(C)ccc2OC)o1`, the TGI in the test on HL-60(TB) leukemia, in the test on COLO 205 colon, with SF-539 CNS, in the test with LOX IMVI melanoma, in the test with SF-268 CNS and in the test on SF-295 CNS was > 100 µM each time. The TGI in the test with OVCAR-8 ovarian, in the test with OVCAR-3 ovarian, in the test on HCT-15 colon and with CAKI-1 renal was > 100 µM each time.

As for `CCOC(=O)CCC(NC(=O)c1ccc(Oc2nc3cc(N)cc(N)c3nc2-c2ccccc2)cc1)C(=O)OCC` (stereo not given), the GI50 is 31.5 µM with HL-60(TB) leukemia; 29.9 µM in the test with COLO 205 colon; 34 µM in the test with SF-539 CNS; 11.9 µM in the test on LOX IMVI melanoma; 40.7 µM in the test on SF-268 CNS; 40.6 µM with SF-295 CNS. Besides, the GI50 in the test on OVCAR-8 ovarian was 38.2 µM; in the test on OVCAR-3 ovarian, 16.2 µM; in the test with HCT-15 colon it was 34.3 µM; in the test on CAKI-1 renal, 49.5 µM. Besides, the TGI in the test on HL-60(TB) leukemia is 95 µM; in the test with COLO 205 colon, > 100 µM; with SF-539 CNS, > 100 µM; in the test on LOX IMVI melanoma, 26.1 µM; in the test on SF-268 CNS, > 100 µM; in the test on SF-295 CNS, > 100 µM. Moreover, the TGI with OVCAR-8 ovarian was > 100 µM; in the test on OVCAR-3 ovarian it was 41.2 µM; in the test with HCT-15 colon, > 100 µM; with CAKI-1 renal it was > 100 µM.

For the molecule `O=S(=O)(c1ccccc1)C1(C2(S(=O)(=O)c3ccccc3)CCN=N2)CCN=N1` (stereo not given), the TGI with HL-60(TB) leukemia, with COLO 205 colon, in the test with SF-539 CNS, in the test on LOX IMVI melanoma, in the test on SF-268 CNS and with SF-295 CNS was > 100 µM throughout. For the same molecule, the TGI in the test with OVCAR-8 ovarian, in the test on OVCAR-3 ovarian, with HCT-15 colon and in the test on CAKI-1 renal was > 100 µM in each case.

For the molecule `COc1cc(/C=C/C(=O)c2cccc(-n3cc(-c4ccccc4)[nH]c3=O)c2)ccc1O`, the GI50 in the test on HL-60(TB) leukemia was 2.07 µM; with COLO 205 colon it was 3.85 µM; in the test on SF-539 CNS, 2.19 µM; with LOX IMVI melanoma, 2.5 µM; in the test on SF-268 CNS, 2.74 µM; in the test on SF-295 CNS, 6.75 µM. For the same molecule, the GI50 in the test on OVCAR-8 ovarian was 3.35 µM; in the test with OVCAR-3 ovarian, 2.33 µM; in the test with HCT-15 colon, 2.9 µM; in the test on CAKI-1 renal, 4.47 µM. For the same molecule, the TGI in the test with HL-60(TB) leukemia is 5.53 µM; in the test on COLO 205 colon, 9.91 µM; with SF-539 CNS, 5.78 µM; in the test with LOX IMVI melanoma, 9.16 µM; in the test with SF-268 CNS it was 8.31 µM; in the test on SF-295 CNS it was 21 µM. Also, the TGI with OVCAR-8 ovarian amounted to 17.8 µM; with OVCAR-3 ovarian, 6.06 µM; with HCT-15 colon it was 14.3 µM; in the test with CAKI-1 renal, 15.2 µM.

As for `Cc1cc(N)c2cc(NC(=O)/C=C\c3ccccc3Cl)ccc2n1`, the GI50 in the test on HL-60(TB) leukemia was 1.67 µM; in the test on COLO 205 colon, 0.266 µM; in the test with SF-539 CNS, 1.69 µM; with LOX IMVI melanoma, 0.212 µM; in the test with SF-268 CNS it was 1.44 µM; in the test with SF-295 CNS, 1.31 µM. Moreover, the GI50 is 1.61 µM in the test on OVCAR-8 ovarian, 1.31 µM in the test on OVCAR-3 ovarian, 1.77 µM with HCT-15 colon and 1.77 µM in the test on CAKI-1 renal. In addition, the TGI in the test with HL-60(TB) leukemia worked out at 3.31 µM; in the test with COLO 205 colon, 0.597 µM; with SF-539 CNS it was 3.07 µM; in the test with LOX IMVI melanoma, 0.447 µM; with SF-268 CNS, 2.97 µM; with SF-295 CNS, 2.71 µM. In addition, the TGI with OVCAR-8 ovarian came out at 3.12 µM; with OVCAR-3 ovarian, 2.7 µM; with HCT-15 colon, 3.27 µM; in the test with CAKI-1 renal, 3.24 µM.
